The values below come from patent US8895509B2, “MIR-200 family induces mesenchymal-to-epithelial transition (MET) in ovarian cancer cells” (Georgia Tech Research Corporation, priority 2010, dated 2014).

In the assay the test system is HEY cells. Nature of the assay: sensitivity of transfected HEY cells to cisplatin. The format is cell-based, human. The conditions noted are these: cisplatin 0.1-50 μM. On the procedure: Cultures of the mesenchymal HEY cells were transfected with a negative control (NC) miRNA or miR-429 using Lipofectamine 2000 (Invitrogen) and treated with increasing concentrations of cisplatin. (0.1, 0.5, 1, 3, 5, 7, 10, 15, 20, 30, 50 μM).

The structures appear in SMILES notation.

For the molecule `N.N.[Cl][Pt][Cl]` [cisplatin], the IC50 – broadly, the concentration that inhibits the measured activity by half – stood at 4.6 µM (HEY cells transfected with miR-429) and 8.7 µM (HEY cells transfected with negative control (NC) miRNA).
